According to patent publication US12382888B2, “Compositions and methods for modulating immunity in plants” (Boyce Thompson Institute for Plant Research, Inc., priority 2013, dated 2025):
Entries after “also recorded” stand apart in the source; their conditions may differ. Read-outs that look alike come from different tables or passages of the source.

Experiments:
[1] = test system: Phytophthora infestans (US22); format: in vivo; details: for resistance to P. infestans: root treatment, at the concentrations tested; for resistance to US22 P. infestans: at the concentration tested
[2] = test system: Phytophthora infestans (US22); format: in vivo

With `CC1O[C@@H](O[C@@H](C)CCCCCCCCC(=O)O)C(O)C[C@H]1O` (stereo in doubt) [ascr #18, (10R)-(3′R,5′R-dihydroxy-6′S-methyl-(2H)-tetrahydropyran-2-yloxy)-undecanoic Acid] the “P. infestans resistance in tomato” value ([1]; tomato (M82), root pretreatment with 0.01 or 1 μM ascaroside) was “+”, the “resistance to P. infestans” value ([1]; tomato cv. M82) was “enhanced resistance” and the “protection against US22 P. infestans (sporangia number, lesion size)” value ([1]; tomato cv. M82, roots pretreated 48 hours, 1 nM and 10 nM) was “strong protection”. The “resistance to virulent US22 P. infestans” value ([1]; tomato cv. M82 and Rio Grande, root immersion 0.01 μM 48 hours before inoculation) was “enhances resistance”, the “resistance to virulent US22 P. infestans (lesion size 5 dpi, sporangia 6 dpi)” value ([1]; tomato cv. Rio Grande, root immersion 0.01 μM 48 hours before) was “enhanced resistance” and the enhancement of resistance ([1]; tomato, 100 nM) was “reduced or lost”. The “ascr #18 concentrations of maximal protection/resistance” value ([1]; tomato, P. infestans US22) was 1 to 10 nM, the “concentration that enhanced resistance (as little as)” value ([1]; tomato, P. infestans US22) was 10 pM and the “protection against P. infestans” value ([1]; tomato, higher concentrations) was “decreased”. For the same compound, the “protection against virulent P. infestans” value ([2]; potato cv. Desiré, Eva or Yukon Gold, 10 nM by root immersion or foliar spray 48 hours prior) was “provided protection; also recorded: protects against P. infestans-induced late blight” and the “resistance to virulent US22 P. infestans (lesion size 5 dpi)” value ([2]; potato cv. Désirée, root immersion 0.01 μM 48 hours before) was “enhanced resistance”.
With `CC1O[C@@H](O[C@H](C)CCCC/C=C/C(=O)O)C(O)C[C@H]1O` (stereo partly shown) [ascr #3] the “resistance of M82 against P. infestans” value ([1]; 0.01 μM) was “did not have a significant effect”, the “P. infestans resistance in tomato” value ([1]; in vivo) was “−” and the “resistance to P. infestans” value ([1]; tomato cv. M82) was “neither ascr #3 nor oscr #9 affected resistance”.
In the case of `C[C@H](CCC(=O)O)O[C@@H]1O[C@@H](C)[C@H](O)C[C@H]1O` [ascr #9], the “P. infestans resistance in tomato” value ([1]; in vivo) is reported as “+”, the “resistance to US22 P. infestans (lesion size, sporangia number)” value ([1]; tomato cv. M82, root immersion 1 μM 48 hours before, 7 dpi) is reported as “enhances resistance” and the “resistance to P. infestans” value ([1]; tomato cv. M82) is reported as “enhanced resistance”.
In the case of `CC1O[C@@H](O[C@H](C)CCCCCCC(=O)O)C(O)C[C@H]1O` (stereo partly shown) [ascr #10], the “resistance to US22 P. infestans” value ([1]; tomato cv. M82) is reported as “not”.
In the case of `CC1O[C@@H](O[C@H](C)CCCCCCCCC(=O)NCCO)C(O)C[C@H]1O` (stereo partly shown) [easc #18], the “resistance to virulent US22 P. infestans (lesion size 5 dpi, sporangia 6 dpi)” value ([1]; in vivo) is reported as “enhanced resistance”.
`CC1O[C@@H](OCCCCC(=O)O)C(O)C[C@H]1O` (stereo partly shown) [oscr #9] was tested, and the “P. infestans resistance in tomato” value ([1]; in vivo) was “−”, the “resistance to US22 P. infestans” value ([1]; tomato cv. M82) was “not” and the “resistance to P. infestans” value ([1]; tomato cv. M82) was “neither ascr #3 nor oscr #9 affected resistance”.
